One series in a line: in vitro. It is filed as cell-based. The conditions noted are these: human, mt-4 cells. As to the method:
(§1) A rapid, sensitive and automated assay procedure was used for the in-vitro evaluation of anti-HIV agents. An […] T4-cell line, MT-4, which was previously shown (Koyanagi et al., Int. J. Cancer, 36, 445-451, 1985) to be highly susceptible to and permissive for HIV infection, served as the target cell line. Inhibition of the HIV-induced cytopathic effect was used as the end point. The viability of both HIV- and mock-infected cells was assessed spectrophotometrically via the in-situ reduction of 3-(4,5-dimethylthiazol-2-yl)-2,5-diphenyltetrazolium bromide (MTT). The 50% cytotoxic dose (CD₅₀ in µg/ml) was defined as the concentration of compound that reduced the absorbance of the mock-infected control sample by 50%. The percent protection achieved by the compound in HIV-infected cells was calculated by the following formula: [formula] whereby (ODT)HIV is the optical density measured with a given concentration of the test compound in HIV-infected cells; (ODC)HIV is the optical density measured for the control untreated HIV-infected cells; (ODC)MOCK is the optical density measured for the control untreated mock-infected cells; all optical density values were determined at 540 nm. The dose achieving 50% protection according to the above formula was defined as the 50% effective dose (ED₅₀ in µg/ml). The ratio of CD₅₀ to ED₅₀ was defined as the selectivity index (SI).

A further series relates to HIV. Nature of the series: Anti-HIV assay: inhibition of the HIV-induced cytopathic effect in MT-4 cells (MTT). It is filed as cell-based. To be noted: for EC50: Human immunodeficiency virus 1, MT4, dose achieving 50% protection of HIV-infected MT-4 cells, MTT, 540 nm, read-out: ED₅₀ (50% effective dose); for SI (selectivity index): ratio of CD₅₀ to ED₅₀. The protocol: as §1

Data on four compounds can be found in EP0417840B1, “Antiviral tetrahydroimidazo [1,4]-benzodiazepines” (JANSSEN PHARMACEUTICA N.V., priority 1989, dated 1991).

Structures are written as SMILES. ≈ marks a conversion by molar mass, not a printed value.

Regarding `CC(C)=CCN1CCn2c(=S)[nH]c3cccc(c32)C1C` (stereo not drawn) [Compound 3], the CC50 in the series “in vitro” is 177 µg/mL (≈ 616 µM). In the series on HIV, the EC50 was found to be 0.1 µg/mL (≈ 0.348 µM) and the “SI (selectivity index)” value was 1770.
In “in vitro”, `CC(C)=CCN1[C@H](C)Cn2c(=S)[nH]c3cccc(c32)[C@H]1C` (relative stereo) [Compound 6, trans-4,5,6,7-tetrahydro-5,7-dimethyl-6-(3-methyl-2-butenyl)imidazo[4,5,1-jk][1,4]benzodiazepine-2(1H)-thione] displayed a CC50 of 23 µg/mL (≈ 76.3 µM). In addition, in the series with HIV, the EC50 came to 0.0048 µg/mL (≈ 0.0159 µM) and the “SI (selectivity index)” value was 4838.
As for `CCCN1CCn2c(=S)[nH]c3cccc(c32)C1C` (stereo not drawn) [Compound 2, 4,5,6,7-tetrahydro-7-methyl-6-propylimidazo[4,5,1-jk] [1,4]benzodiazepin-2(1H)-thione], in “in vitro”, the CC50 worked out at 129 µg/mL (≈ 494 µM). Besides, in the series with HIV, the EC50 came out at 0.5 µg/mL (≈ 1.91 µM) and the “SI (selectivity index)” value is 258.
Compound `CC(C)=CCN1[C@H](C)Cn2c(=S)[nH]c3cccc(c32)[C@@H]1C` (relative stereo) [Compound 5, cis-4,5,6,7-tetrahydro-5,7-dimethyl-6-(3-methyl-2-butenyl)imidazo[4,5,1-jk][1,4]benzodiazepine-2(1H)thione] displayed a CC50 in the series “in vitro” of 23 µg/mL (≈ 76.3 µM). In the series with HIV, the EC50 was found to be 0.24 µg/mL (≈ 0.796 µM) and the “SI (selectivity index)” value was found to be 96.
